ChEMBL document CHEMBL3885861, “Open TG-GATES”

Species on record: Rattus norvegicus
Experiment: Open TG-GATES - Regimen: Daily Repeat
Format: toxicity, organism-based, Sprague-Dawley
Set-up: regimen Daily Repeat, gender Male, age 6 weeks
Conditions: in vivo, po, 0 mg/kg, route gavage, dose level Control; for APTT / Bas / Eos / Fbg / Hb / Ht / Lym / MCH / MCHC / MCV / Mono / Neu / PT / Plat / RBC / Ret / WBC: tissue Blood; for KIDNEY_L / KIDNEY_R / KIDNEY_TOTAL: tissue Kidney; for LIVER: tissue Liver; for A/G / ALP / ALT / AST / BUN / CRE / Ca / Cl / DBIL / GLC / IP / K / LDH / Na / PL / RALB / TBIL / TC / TG / TP / gamma-GTP: tissue Plasma

## C=CCO [ALLYL ALCOHOL]
72 h, time 3 day
  TERMINAL_BW: 237.2 g
  APTT: 19.1 s
  Bas: 0%
  Eos: 1%
  Fbg: 221.6 mg/dL
  Hb: 13.4 g/dL
  Ht: 39.6%
  Lym: 79.4%
  MCH: 21 pg
  MCHC: 33.8%
  MCV: 62.1 fL
  Mono: 2.8%
  Neu: 16.6%
  PT: 11.7 s
  Plat: 133.7 x10_4/uL
  RBC: 638 x10_4/ul
  Ret: 5.7%
  WBC: 129.8 x10_2/uL
  KIDNEY_L: 1 g
  KIDNEY_R: 1 g
  KIDNEY_TOTAL: 2 g
  LIVER: 11.1 g
  A/G: 1.6
  ALP: 952.4 IU/L
  ALT: 38 IU/L
  AST: 65.8 IU/L
  BUN: 16.2 mg/dL
  CRE: 0.4 mg/dL
  Ca: 10.7 mg/dL
  Cl: 103.4 meq/L
  DBIL: 0.088 mg/dL
  GLC: 225.8 mg/dL
  IP: 6.1 mg/dL
  K: 4 meq/L
  LDH: 245.4 IU/L
  Na: 140.8 meq/L
  PL: 148.2 mg/dL
  RALB: 3.4 g/dL
  TBIL: 0.1 mg/dL
  TC: 77.4 mg/dL
  TG: 110.2 mg/dL
  TP: 5.4 g/dL
  gamma-GTP: 0.8 IU/L
[…], time 7 day
  TERMINAL_BW: 272.9 g
  APTT: 20 s
  Bas: 0%
  Eos: 1%
  Fbg: 227.6 mg/dL
  Hb: 13.3 g/dL
  Ht: 38.8%
  Lym: 79.4%
  MCH: 20.9 pg
  MCHC: 34.4%
  MCV: 60.6 fL
  Mono: 3%
  Neu: 16.2%
  PT: 11.9 s
  Plat: 136 x10_4/uL
  RBC: 640.4 x10_4/ul
  Ret: 5%
  WBC: 119.1 x10_2/uL
  KIDNEY_L: 1.1 g
  KIDNEY_R: 1.1 g
  KIDNEY_TOTAL: 2.2 g
  LIVER: 13.1 g
  A/G: 1.5
  ALP: 889.2 IU/L
  ALT: 34 IU/L
  AST: 60.8 IU/L
  BUN: 16.6 mg/dL
  CRE: 0.4 mg/dL
  Ca: 10.9 mg/dL
  Cl: 102 meq/L
  DBIL: 0.098 mg/dL
  GLC: 219.6 mg/dL
  IP: 6.9 mg/dL
  K: 3.9 meq/L
  LDH: 180.4 IU/L
  Na: 140.6 meq/L
  PL: 146 mg/dL
  RALB: 3.4 g/dL
  TBIL: 0.2 mg/dL
  TC: 74 mg/dL
  TG: 124.4 mg/dL
  TP: 5.6 g/dL
  gamma-GTP: 0.8 IU/L
[…], time 14 day
  TERMINAL_BW: 319.8 g
  APTT: 19.8 s
  Bas: 0%
  Eos: 1%
  Fbg: 229 mg/dL
  Hb: 14.2 g/dL
  Ht: 41%
  Lym: 78.2%
  MCH: 20.2 pg
  MCHC: 34.6%
  MCV: 58.5 fL
  Mono: 2.8%
  Neu: 17.6%
  PT: 12 s
  Plat: 126.7 x10_4/uL
  RBC: 701.8 x10_4/ul
  Ret: 4.1%
  WBC: 144 x10_2/uL
  KIDNEY_L: 1.2 g
  KIDNEY_R: 1.2 g
  KIDNEY_TOTAL: 2.4 g
  LIVER: 14.1 g
  A/G: 1.4
  ALP: 766.2 IU/L
  ALT: 34.2 IU/L
  AST: 61.2 IU/L
  BUN: 14.8 mg/dL
  CRE: 0.4 mg/dL
  Ca: 10.5 mg/dL
  Cl: 101.4 meq/L
  DBIL: 0.072 mg/dL
  GLC: 234 mg/dL
  IP: 6.9 mg/dL
  K: 3.7 meq/L
  LDH: 223.2 IU/L
  Na: 140.2 meq/L
  PL: 141.2 mg/dL
  RALB: 3.4 g/dL
  TBIL: 0.1 mg/dL
  TC: 68.8 mg/dL
  TG: 101 mg/dL
  TP: 5.8 g/dL
  gamma-GTP: 1.2 IU/L
[…], time 28 day
  TERMINAL_BW: 385.1 g
  APTT: 20.9 s
  Bas: 0%
  Eos: 1%
  Fbg: 220.6 mg/dL
  Hb: 15.7 g/dL
  Ht: 45.2%
  Lym: 81.8%
  MCH: 19.6 pg
  MCHC: 34.7%
  MCV: 56.5 fL
  Mono: 2.4%
  Neu: 14.4%
  PT: 11.8 s
  Plat: 111.6 x10_4/uL
  RBC: 801.6 x10_4/ul
  Ret: 2.6%
  WBC: 94.8 x10_2/uL
  KIDNEY_L: 1.3 g
  KIDNEY_R: 1.3 g
  KIDNEY_TOTAL: 2.6 g
  LIVER: 16 g
  A/G: 1.3
  ALP: 588.4 IU/L
  ALT: 33.6 IU/L
  AST: 59.2 IU/L
  BUN: 15.4 mg/dL
  CRE: 0.5 mg/dL
  Ca: 10.5 mg/dL
  Cl: 101.8 meq/L
  DBIL: 0.068 mg/dL
  GLC: 222.2 mg/dL
  IP: 6.1 mg/dL
  K: 3.4 meq/L
  LDH: 166.6 IU/L
  Na: 140.6 meq/L
  PL: 141.8 mg/dL
  RALB: 3.5 g/dL
  TBIL: 0.1 mg/dL
  TC: 71.2 mg/dL
  TG: 100.2 mg/dL
  TP: 6.2 g/dL
  gamma-GTP: 1 IU/L
